The record followed here is US20240301000A1, “TETRAPEPTIDE DERIVATIVE,COSMETIC COMPOSITION OR PHARMACEUTICAL COMPOSITION AND USE THEREOF” (SHENZHEN WINKEY TECHNOLOGY CO., LTD, priority 2021, published 2024).

Residues, ends and D or L forms follow the SMILES beside them. *: point of attachment. X1 = O=C(OCc1cc(=O)c(O)co1)*; Nicotinoyl = O=C(c1cccnc1)*

Common to all, as to assay type: cell-based, Human
One series relates to HaCaT cells. Kind of series: Cell viability assay (MTT) in HaCaT cells. As to conditions: 1, 10, 100 and 200 ppm, 72 h, compared with PBS control group (FIG. 1). From the text: (§1) Human keratinocytes (HaCaT) were purchased from the Kunming Cell Bank of China Center for Type Culture Collection under the Chinese Academy of Sciences.
• the peptide H-Pro-Lys-Glu-Lys-OH (hereinafter referred to as the reference peptide), at a test concentration of 1 ppm, 10 ppm, 100 ppm, and 200 ppm, respectively; • the peptide (1), at a test concentration of 1 ppm, 10 ppm, 100 ppm, and 200 ppm, respectively; • the peptide (3), at a test concentration of 1 ppm, 10 ppm, 100 ppm, and 200 ppm, respectively; • the peptide (5), at a test concentration of 1 ppm, 10 ppm, 100 ppm, and 200 ppm, respectively.
The purpose of this experiment is to evaluate cell viability 72 h after administration and determine the effect of the peptide derivatives of the present invention on cell viability by using HaCaT cells as the experiment subject.
(§2) The frozen HaCaT cells were cultured and passaged at a ratio of 1:2 to about the 5th generation, and the cells in better growth were selected as experiment subjects.
The cells were inoculated in a 96-well plate at 2000 cells/well. After the cells adhered to the wall, samples of the drug groups and the control group were added according to the multiple dilution method, supplemented with a culture medium to 200 μL, and cultured in a 5% CO2 incubator at 37° C. for 72 h.
Then 20 μL 5 mg/ml MTT was added to each well and the incubation was continued in the 5% CO2 incubator at 37° C. for 4 h. The original solution was removed and DMSO was added at 150 μL/well. After 5 min, the microplate reader was used to read the reference OD values at 490 nm and 630 nm wavelengths.
The MTT assay is a method of detecting cell survival and growth. The measured OD values are directly proportional to cell viability.

For the next series, the system named is α-MSH. Kind of series: Cell assay for inhibition of α-MSH generation (ELISA, HaCaT supernatant). As to conditions: 100 ppm, 48 h; for statistical difference in the α-MSH inhibition compared with the control group: HaCaT (FIG. 2); for effect on α-MSH expression: HaCaT supernatant, compared with PBS control group (FIG. 2). On the procedure:
Fetal bovine serum, DMEM medium, penicillin, streptomycin, and an α-MSH ELISA kit.
as §1
• 100 ppm of the reference peptide, 100 ppm of the peptide (1), 100 ppm of the peptide (3), 100 ppm of the peptide (5), 100 ppm of NA, 100 ppm of TXC, and 100 ppm of KA.
as §2
When the cells were about 80% confluent, the samples were added to each group. In the control group, a PBS solution was added and supplemented with a culture medium to 1000 μL. In the drug groups, the diluted active substance and the culture medium were added to 1000 μL and the groups were further incubated in a 5% CO2 incubator at 37° C. for 48 h. After the completion of the culture, the solutions were centrifuged at 3000 rpm for 10 min, in each of which a cell supernatant was collected to obtain a sample liquid. Operations were performed according to the instructions of the α-MSH kit.
α-MSH can promote the formation of melanin by activating tyrosinase. Therefore, down-regulation of the α-MSH expression can reduce melanin generation and exert a whitening effect.
A general note: In an ELISA, binding on a coated surface is turned into a signal by an enzyme label.

The test system of the next series is IL-6. Kind of series: Anti-inflammatory cell assay, UV-irradiated HaCaT cells, IL-6 ELISA. The conditions noted are these: 50 ppm, 48 h after UV irradiation, compared with UV group (FIG. 3). On the procedure: (§3) Fetal bovine serum, DMEM medium, penicillin, streptomycin, an IL-6 ELISA kit and a TNF-α ELISA kit.
as §1
(§4) • 50 ppm of the reference peptide, 50 ppm of the peptide (1), 50 ppm of the peptide (3), and 50 ppm of the peptide (5).
as §2
(§5) When the cells were about 80% confluent, a model of inflammation stimulated by UV radiation was established. In the control group, a PBS solution was added and supplemented with the culture medium to 1000 μL, while no UV irradiation was performed; The UV group and the drug groups were exposed to an […] UV light. After irradiation, in the UV group the PBS solution and a culture medium were added to 1000 μL, and in the drug groups the diluted active substance and the culture medium were added to 1000 μL. The control group, the UV group, and the drug groups were further incubated in a 5% CO2 incubator at 37° C. for 48 h. After the completion of the culture, the solutions were centrifuged at 3000 rpm for 10 min, in each of which a cell supernatant was collected to obtain a sample liquid. […]

For a further series, the system named is TNF-α. Kind of series: Anti-inflammatory cell assay, UV-irradiated HaCaT cells, TNF-α ELISA. As to conditions: 50 ppm, 48 h after UV irradiation, compared with UV group (FIG. 4). On the procedure: as §3, §1, §4, §2, §5

As for `NCCCCC(NC(=O)C(CCC(=O)O)NC(=O)C(CCCCN)NC(=O)C1CCCN1C(=O)c1cccnc1)C(=O)O` (stereo not drawn) [peptide (1), NA-Pro-Lys-Glu-Lys-OH] (Nicotinoyl-PKEK-OH; configuration not given here), in the series on HaCaT cells, the “effect on HaCaT cell viability” value was “no significant effect”.

With `NCCCCC(NC(=O)C(CCC(=O)O)NC(=O)C(CCCCN)NC(=O)C1CCCN1C(=O)OCc1cc(=O)c(O)co1)C(=O)O` (stereo not drawn) [peptide (5), KA-CO-Pro-Lys-Glu-Lys-OH] (X1-PKEK-OH; configuration not given here), the “effect on HaCaT cell viability” value with HaCaT cells was “no significant effect”.

For the molecule `O=c1cc(CO)occ1O` [KA, kojic acid], in the series with α-MSH, the “statistical difference in the α-MSH inhibition compared with the control group” value is “no statistical difference” and the “effect on α-MSH expression” value is recorded as “inhibited the α-MSH expression to a certain extent”.

As for TXC-Pro-Lys-Glu-Lys-OH [peptide (3)], in the series with HaCaT cells, the “effect on HaCaT cell viability” value is on record as “no significant effect”. Further, the “effect on α-MSH expression” value in the series with α-MSH is given as “significantly down-regulated”. For the same molecule, in the series with IL-6, the “effect on IL-6 expression” value is on record as “significantly down-regulated”. Also, the “effect on TNF-α expression” value in the series with TNF-α is reported as “significantly down-regulated”.

Turning to “H-Pro-Lys-Glu-Lys-OH (H-PKEK-OH) [reference peptide]”, in the series with α-MSH, the “statistical difference in the α-MSH inhibition compared with the control group” value is given as “no statistical difference” and the “effect on α-MSH expression” value was “inhibited the α-MSH expression to a certain extent”. The “effect on IL-6 expression” value in the series on IL-6 is listed as “significantly down-regulated”. Also, the “effect on TNF-α expression” value in the series on TNF-α is given as “inhibited the TNF-α expression to a certain extent, but the inhibitory effect was not obvious”.

For the molecule tranexamic acid [TXC], in the series with α-MSH, the “effect on α-MSH expression” value was “inhibited the α-MSH expression to a certain extent”.

For the molecule `O=C(O)c1cccnc1` [NA, niacin], in the series on α-MSH, the “statistical difference in the α-MSH inhibition compared with the control group” value is listed as “no statistical difference” and the “effect on α-MSH expression” value was “inhibited the α-MSH expression to a certain extent”.
